A short description of the data set: Thermogravimetric analysis (thermal stability). To be noted: heated from room temperature to 700° C. at 5° C./min under argon flux. In kind it is physicochemical. The text has this:
More detailed crystallographic results are provided in FIGS. 17a and 17b and the table in FIG. 7. The 0D structure at the molecular level was clearly observed in (TPA-P)2ZnBr4 with ZnBr4^2− tetrahedrons completely isolated and surrounded by TPA-P^+ cations. The zinc center adopted a typical tetra-coordinated geometry bonded to the bromide ions, with an average Zn—Br bond length of 2.41 Å and bond angle of 109.740 (see also the table in FIG. 8).
Thermal Stability Analysis: TGA studies were done using a TA instruments Q600 system. The sample was heated from room temperature to 700° C. at a 5° C./min rate under an argon flux of 100 ml/min.

As to `CCC[n+]1ccc(-c2ccc(N(c3ccccc3)c3ccccc3)cc2)cc1.[Br-]` [TPA-PBr, 4-(4-(diphenylamino)phenyl)-1-(Propyl)-pyrindin-lium bromide], the “onset weight loss (thermogravimetric analysis)” value was determined as 211 °C.

Source of the values: patent US20240034929A1, “SCINTILLATION MATERIALS AND METHODS” (Florida State University Research Foundation, Inc., priority 2022, published 2024).
